Read-outs that look alike come from different tables or passages of the source.
Columns and labels:
[1] = test system: male NMRI mice; test: Toxicity, Irwin's test (lethal dose); format: in vivo; settings: intraperitoneal
Experimental: 5. Toxicity. The toxicity of the compounds according to the present invention has been determined in male NMRI mice by means of Irwin's test (S. IRWIN, Psychopharmacologia, 13, (1968), 222-257).
Progressive doses of the test compound are administered intraperitoneally to groups of three mice until the lethal dose is reached (dose causing the death of two out of three animals within 48 hours). In Table IX below, the lethal dose in mg/kg found for the compounds of the invention is given. It can be seen from this Table that the compounds of the invention are not very toxic.

[2] = Diuretic activity in beagle dogs (urine excretion); format: in vivo; settings: for Mean relative increase in urine excretion: first three hours; for minimal effective dose: Canis lupus familiaris, iv, 3 h, i.v., read-out: minimum active dose that causes a statistically significant increase of the urine excretion
Experimental: 4. Diuretic activity. The diuretic activity of the compounds of the invention has been determined using beagle dogs (6 males and 6 females) be means of a 6-way randomized cross-over study.
The compounds to be studied are administered intravenously at increasing doses: 2, 6.5, 20, 65 and 200 μg/kg. During the first three hours following the injection, the volume of urine excreted is measured. Table VIII gives for compound A the mean relative increase in % of the volume of urine excreted with respect to the group of animals which have not received the compound.

[3] = molecular target: T1, presynaptic α2 -adrenergic receptors (Cavia porcellus, UniProt Q60474); test: Stimulation of the isolated guinea-pig atria (reduction in tachycardia)
T1 construct: Stimulation of a guinea-pig ileum; from tissue; host or cells: guinea-pig ileum longitudinal muscle strips
T1 sequence (Q60474 1-464): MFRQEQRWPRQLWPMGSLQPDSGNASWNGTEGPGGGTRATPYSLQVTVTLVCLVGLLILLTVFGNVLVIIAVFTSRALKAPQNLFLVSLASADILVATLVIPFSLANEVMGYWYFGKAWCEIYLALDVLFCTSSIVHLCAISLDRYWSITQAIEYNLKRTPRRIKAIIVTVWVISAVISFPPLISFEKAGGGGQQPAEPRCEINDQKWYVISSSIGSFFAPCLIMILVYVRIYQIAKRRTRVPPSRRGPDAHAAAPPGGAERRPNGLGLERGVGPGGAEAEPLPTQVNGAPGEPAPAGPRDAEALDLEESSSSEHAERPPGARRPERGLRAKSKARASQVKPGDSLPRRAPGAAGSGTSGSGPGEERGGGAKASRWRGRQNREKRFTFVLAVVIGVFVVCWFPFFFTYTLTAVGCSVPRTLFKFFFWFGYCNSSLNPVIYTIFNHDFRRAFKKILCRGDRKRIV
Text: (b) Stimulation of the isolated guinea-pig atria. The release of noradrenalin at the level of the nerve endings is mediated by a feedback regulating mechanism through the presynaptic α2 -adrenergic receptors. […] Ed. D. S. DAVIES, J. L. REID, Pitman, London.
The electrical stimulation of the isolated guinea-pig atria induces a release of noradrenalin which results in an increase in the rate of the heart beat (tachycardia). This tachycardia is inhibited by an α2 -agonist such as, for example, clonidine, in a proportion which depends on the dose of the agonist used. The action of the α2 -agonist may be limited in the presence of an α2 -specific antagonist such as α-yohimbine.
The in vitro activity of the compounds of the invention on the presynaptic α2 -adrenergic receptors has been studied on the isolated guinea-pig atria, electrically stimulated according to the method described by I. C. MEDGETT et al., Naunyn-Schmiedeberg's Arch. Pharmacol. 304, (1978), 215-221. The compound to be studied is tested in increasing concentrations ranging from 10^-10 to 10^-3 mole/l. The concentration (IC30 in mole/l) which causes a 30% reduction in the maximum tachycardia obtained initially during the electrical stimulation of the atria in the absence of the compound to be tested, is determined.
On the other hand, in the presence of a concentration of 10^-6 mole/l of α-yohimbine, the concentration of compound A necessary to obtain a reduction of 30% in the tachycardia is greater than 10^-7 mole/l.

[4] = molecular target: T2, α2 -adrenergic receptors (Rattus norvegicus, UniProt P22909); test: Competitive binding assay with [^3 H]clonidine on rat brain membranes; settings: 30 minutes incubation, read-out: IC50 (50% inhibition of the binding of [^3 H]clonidine)
T2 construct: three different preparations of rat brain membranes; from tissue; host or cells: rat brain membranes
T2 sequence (P22909 1-465): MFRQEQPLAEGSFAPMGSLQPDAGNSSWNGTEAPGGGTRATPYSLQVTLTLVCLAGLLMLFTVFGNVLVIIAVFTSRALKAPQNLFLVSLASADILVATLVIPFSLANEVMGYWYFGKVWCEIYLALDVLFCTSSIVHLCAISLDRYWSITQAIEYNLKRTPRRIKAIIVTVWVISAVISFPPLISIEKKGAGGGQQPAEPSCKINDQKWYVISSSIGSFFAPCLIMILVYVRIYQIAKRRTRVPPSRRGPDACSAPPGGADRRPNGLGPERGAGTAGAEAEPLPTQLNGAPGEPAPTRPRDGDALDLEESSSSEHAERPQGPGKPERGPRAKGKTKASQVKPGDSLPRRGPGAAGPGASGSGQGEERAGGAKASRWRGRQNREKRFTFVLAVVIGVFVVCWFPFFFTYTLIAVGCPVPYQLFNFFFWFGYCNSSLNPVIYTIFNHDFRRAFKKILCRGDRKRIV
Text: (a) Competitive binding assay with a radioligand. The object of competitive binding assays is to measure the affinity of the compounds of the invention for α2 -adrenoceptors. These conventional experiments involve the competition for binding to α2 -adrenergic receptors between the tested compound on the one hand, and on the other hand, a radioligand which, in this particular case of α2 -adrenergic receptors, is the [^3 H]clonidine which is known to be a specific α2 -adrenergic agonist.
The method used is that of D. C. U'PRICHARD et al., Mol. Pharmacol. 13, (1977), 454-473.
The displacement curves for binding of [^3 H]clonidine have been determined with nine concentrations of compound A, ranging from 10^-4 to 10^-10 mole/l, and with three different preparations of rat brain membranes. The samples were incubated for 30 minutes, and then filtered under reduced pressure using a Whatman GF/B filter. The filters are washed three times with 5 ml of Tris-HCl buffer (pH 7.5 at 0° C.) and then dried for one minute. The radioactivity is measured in an Econofluor (-NEN Corp.) medium. The [^3 H]clonidine (25.5 Ci/mmole) used is provided by Amersham.
The affinity of compound A for the α2 -adrenergic receptors has been calculated from the displacement curves of the [^3 H]clonidine. […]

Structure (SMILES): Cl.NC(=O)c1cccc(Cc2c[nH]cn2)c1O [A, 2-hydroxyl-3-[(1H-imidazol-4-yl)methyl]-benzamide hydrochloride]
- lethal dose (death of two out of three animals within 48 hours) [1]: 760000 µg/kg
- Mean relative increase in urine excretion ([2]; 2 μg/kg i.v., females, P < 0.05): 74%
- Mean relative increase in urine excretion ([2]; 2 μg/kg i.v., males): 25%
- Mean relative increase in urine excretion ([2]; 6.5 μg/kg i.v., females, P < 0.01): 291%
- Mean relative increase in urine excretion ([2]; 6.5 μg/kg i.v., males, P < 0.05): 122%
- Mean relative increase in urine excretion ([2]; 20 μg/kg i.v., females, P < 0.01): 531%
- Mean relative increase in urine excretion ([2]; 20 μg/kg i.v., males, P < 0.01): 383%
- Mean relative increase in urine excretion ([2]; 65 μg/kg i.v., females, P < 0.01): 804%
- Mean relative increase in urine excretion ([2]; 65 μg/kg i.v., males, P < 0.01): 345%
- Mean relative increase in urine excretion ([2]; 200 μg/kg i.v., females, P < 0.01): 988%
- Mean relative increase in urine excretion ([2]; 200 μg/kg i.v., males, P < 0.01): 412%
- minimal effective dose ([2]; females): ≤ 2 µg/kg
- minimal effective dose ([2]; males): ≤ 6.5 µg/kg
- concentration necessary to obtain a reduction of 30% in the tachycardia ([3]; in the presence of 10^-6 mole/l of α-yohimbine): greater than 10^-7 mole/l
- IC30 ([3]; isolated guinea-pig atria, electrical stimulation, read-out: IC30 (30% reduction in the maximum tachycardia)): 0.9 nM
- IC50 [4]: 8.9 nM
